Data taken from paper PMC4474874, “Effect of JAK Inhibitors on Release of CXCL9, CXCL10 and CXCL11 from Human Airway Epithelial Cells” (PLoS ONE, 2015).
Read-outs that look alike come from different tables or passages of the source.

What was measured:
STAT-1 [1] = experiment: STAT-1 phosphorylation in BEAS-2B cells (western blot); type: cell-based, human; conditions: n = 4
Protocol: Enhanced chemiluminescence (ECL) reagent and Hybond-ECL nitrocellulose were obtained from GE Healthcare (Little Chalfont, UK). Bis-Tris SDS-PAGE (4–12%) gels and buffers were purchased from Invitrogen Ltd (Paisley, Scotland, UK). Antibodies against phosphorylated and total STAT-1 were purchased from New England Biolabs (Hitchin, UK). Epithelial cells were treated as indicated in six-well plates and lysed in 10 mM Tris-HCl buffer (pH 7.5) containing 150 mM NaCl, 2 mM EDTA, 1 mM sodium orthovanadate, 1% (v/v) Triton X-100, 1 mM phenylmethylsulfonyl fluoride, 10 μg/ml leupeptin, and 10 μg/ml aprotinin) for 30 min on ice. The lysates were then centrifuged at 12,000g for 15 min and protein concentration determined using the BCA protein assay (BioRad, Hemel Hempstead, UK). The proteins within the lysates (20 μg) were resolved with 4–12% Bis-Tris gels and transferred onto nitrocellulose membranes. The membranes were then blocked with 5% (w/v) non-fat milk in TBS containing 0.1% (v/v) Tween 20 for 1 h at room temperature and then incubated with antibodies specific for pSTAT-1 overnight at 4°C. The primary antibody was detected with peroxidase-conjugated secondary antibodies and labelled proteins were detected by ECL.
Having ascertained that JAK inhibitors could suppress the glucocorticosteroid-insensitive release of CXCL9, CXCL10 and CXCL11 from airway epithelial cells, it was important to confirm that this was via inhibition of the JAK-STAT pathway and not an off-target effect of these agents. […] BEAS-2B cells were stimulated with either IFNγ or IFNγ in combination with TNFα and the phosphorylation of STAT-1 was measured by western blotting as reported previously (Fig 4). […] There was no activation of STAT-5A or STAT-5B in this system (data not shown).
Cells were harvested and western blots performed for phosphorylated STAT-1 and total STAT-1 and quantified by densitometry. Data are representative of n = 4 independent experiments (panels a and c) and presented as mean±SEM, n = 4 (panels b and d).

STAT-1 [2] = experiment: STAT-1 DNA binding in BEAS-2B cells (TransAM); type: cell-based, human; conditions: IFNγ and IFNγ + TNFα stimulation
Protocol: STAT phosphorylation, nuclear translocation and DNA binding was determined using TransAM assays (Actif Motif, Rixensart, Belgium). Cells were treated with JAK inhibitors for 30 min prior to stimulation for 1h. Nuclear extracts were prepared using the Actif Motif assay reagents. Briefly, the nuclear extracts (10 μg) were incubated in DNA coated plates for 1h. After washing, antibodies supplied with the TransAM kit that were specific for the active forms of STAT1, STAT3, STAT5A and STAT5B were added to the wells and incubated for a further hour. The plates were washed and a secondary HRP-labelled anti-goat Ig antibody was added and the plates incubated for an hour. After washing, the assay was developed using the TMB substrate provided and the reaction stopped using 2N sulphuric acid. The plates were read at 450nm with a reference filter of 610nm. Data were then normalised to non-stimulated cells and calculated as fold change from baseline.
After 1 h, nuclear extracts of the cells were prepared and TransAM assays for STAT-1 (panel a) and STAT-3 (panel b) were performed. Data are presented as fold change from baseline ± SEM; n = 4.

[3] = test system: human primary airway epithelial cells; experiment: IL-6 release from IFNγ + TNFα-stimulated human primary airway epithelial cells; type: cell-based; conditions: IFNγ + TNFα, n = 7
Protocol: In order to determine whether any of the inhibitory effects of the JAK inhibitors could be attributed to cell death, MTT assays were performed at the end of every experiment. […] In order to address this issue, the levels of IL-6 released from cells stimulated with IFNγ + TNFα were measured.

[4] = test system: human primary airway epithelial cells; experiment: Release of CXCL9, CXCL10 and CXCL11 from human primary airway epithelial cells (ELISA); type: cell-based; conditions: pre-treated 1h; for IC50: pooled primary cells
Protocol: BEAS-2B cells (catalogue number CRL-9609) were purchased directly from American Type Culture Collection (Rockville, MD). Keratinocyte serum-free medium (K-SFM), bovine pituitary extract (BPE), and recombinant human epidermal growth factor (EGF) were purchased from Invitrogen (Paisley, UK). BEAS-2B cells were cultured in K-SFM containing 50 μg/ml BPE and 5 ng/ml EGF at 37°C in a humidified atmosphere comprising 5% (v/v) CO2 in air. Cells were cultured as monolayers in growth factor-free media for 24 h prior to stimulation. Human primary airway epithelial cells were cultured as monolayers from bronchial brushings from both male and female subjects (Table 1) and cultured in LHC-9 media (Invitrogen, Paisley, UK) in collagen (1% w/v) coated flasks. Samples were obtained from non-smokers, smokers and patients with COPD. […] The subjects were matched for age and smokers and COPD patients for smoking history (Table 1). All subjects gave informed written consent and the study was approved by the NRES London-Chelsea Research Ethics committee, study number 09/H0801/85.
Cell-free supernatants were removed 20h post-stimulation and assayed for CXCL9, CXCL10 and CXCL11 using Duoset ELISA kits (R & D Systems Europe, Abingdon, UK) according to the manufacturer’s instructions. The detection limits of these assays are 62pg/ml, 31pg/ml, and 7.8 pg/ml respectively.
Data are presented as mean ± SEM of ‘n’ independent determinations. Concentration-response curves were analysed by least-squares, non-linear iterative regression with the ‘Graphpad Prism’ curve fitting program (GraphPad software, San Diego, USA) and IC50 values were subsequently interpolated from curves of best-fit. Statistical differences were determined using the Kruskal–Wallis test followed by Dunn's multiple comparison test or a Wilcoxon signed rank test as appropriate. Values of P<0.05 were considered significant.
Media was harvested and the concentrations of CXCL9 (panels a and d), CXCL10 (panels b and e) and CXCL11 (panels c and f) were measured by ELISA. Data are presented as mean ± SEM, n = 10–13.

**Q.** Which results are given for `C[C@@H]1CCN(C(=O)N2CCCC2)C[C@@H]1N(C)c1ncnc2[nH]ccc12` [PF956980]?
**A.** IC50 (STAT-1 [1]; IFNγ + TNFα stimulation): 840 ± 210 nM; IC50 (STAT-1 [1]; IFNγ stimulation): 940 ± 160 nM; effect on STAT-1 DNA binding (STAT-1 [2]): suppressed; IC50 [3]: 11400 ± 9000 nM; IC50 ([4]; IFNγ (10ng/ml) 20h, read-out: IC50, release of CXCL9): 680 ± 120 nM; IC50 ([4]; IFNγ (10ng/ml) 20h, read-out: IC50, release of CXCL10): 960 ± 190 nM; IC50 ([4]; IFNγ (10ng/ml) 20h, read-out: IC50, release of CXCL11): 760 ± 120 nM; IC50 ([4]; IFNγ+TNFα (10ng/ml) 20h, read-out: IC50, release of CXCL9): 520 ± 170 nM; IC50 ([4]; IFNγ+TNFα (10ng/ml) 20h, read-out: IC50, release of CXCL10): 2120 ± 240 nM; IC50 ([4]; IFNγ+TNFα (10ng/ml) 20h, read-out: IC50, release of CXCL11): 1580 ± 330 nM; EC50 ([4]; primary cells from COPD patients, IFNγ (10 ng/ml) 20h, read-out: EC50, release of CXCL9): 630 ± 90 nM; EC50 ([4]; primary cells from COPD patients, IFNγ (10 ng/ml) 20h, read-out: EC50, release of CXCL10): 530 ± 10 nM; EC50 ([4]; primary cells from COPD patients, IFNγ (10 ng/ml) 20h, read-out: EC50, release of CXCL11): 820 ± 250 nM; EC50 ([4]; primary cells from COPD patients, IFNγ +TNFα (10 ng/ml) 20h, read-out: EC50, release of CXCL9): 590 ± 380 nM; EC50 ([4]; primary cells from COPD patients, IFNγ +TNFα (10 ng/ml) 20h, read-out: EC50, release of CXCL10): 1840 ± 400 nM; EC50 ([4]; primary cells from COPD patients, IFNγ +TNFα (10 ng/ml) 20h, read-out: EC50, release of CXCL11): 1920 ± 670 nM; EC50 ([4]; primary cells from non-smokers, IFNγ (10 ng/ml) 20h, read-out: EC50, release of CXCL9): 880 ± 390 nM; EC50 ([4]; primary cells from non-smokers, IFNγ (10 ng/ml) 20h, read-out: EC50, release of CXCL10): 810 ± 150 nM; EC50 ([4]; primary cells from non-smokers, IFNγ (10 ng/ml) 20h, read-out: EC50, release of CXCL11): 660 ± 240 nM; EC50 ([4]; primary cells from non-smokers, IFNγ +TNFα (10 ng/ml) 20h, read-out: EC50, release of CXCL9): 610 ± 260 nM; EC50 ([4]; primary cells from non-smokers, IFNγ +TNFα (10 ng/ml) 20h, read-out: EC50, release of CXCL10): 2720 ± 360 nM; EC50 ([4]; primary cells from non-smokers, IFNγ +TNFα (10 ng/ml) 20h, read-out: EC50, release of CXCL11): 1850 ± 670 nM; EC50 ([4]; primary cells from smokers, IFNγ (10 ng/ml) 20h, read-out: EC50, release of CXCL9): 550 ± 90 nM; EC50 ([4]; primary cells from smokers, IFNγ (10 ng/ml) 20h, read-out: EC50, release of CXCL10): 1280 ± 360 nM; EC50 ([4]; primary cells from smokers, IFNγ (10 ng/ml) 20h, read-out: EC50, release of CXCL11): 780 ± 160 nM; EC50 ([4]; primary cells from smokers, IFNγ +TNFα (10 ng/ml) 20h, read-out: EC50, release of CXCL9): 350 ± 260 nM; EC50 ([4]; primary cells from smokers, IFNγ +TNFα (10 ng/ml) 20h, read-out: EC50, release of CXCL10): 1880 ± 410 nM; EC50 ([4]; primary cells from smokers, IFNγ +TNFα (10 ng/ml) 20h, read-out: EC50, release of CXCL11): 870 ± 130 nM
